Data published in US20260034153A1, “Cerebral Blood Flow Augmenter, Brain Activity Promoter, and Vigilance Improver” (Mitsui DM Sugar Co., Ltd., priority 2022, published 2026).

Assays:
[1] = test system: healthy men and women; test: Digit vigilance task (DVT) response time after intake of test food, crossover test; format: in vivo, human; conditions: 10.0 g in 100 mL water taken orally before 2nd DVT; 5 DVTs, one per hour; 64 subjects; FIG. 1
Protocol: As the subjects, 64 healthy men and women of 20 to 60 years old were employed. The effects of intake of isomaltulose on cerebral blood flow and brain activity were evaluated based on measurement of the response time to a cognitive task (Digit vigilance task (DVT)) and change of the cerebral blood flow in accordance with the following test. Test methods are more specifically shown below. In the test, each block including the steps shown in Table 1 was performed in one hour, and the 1st block to the 5th block were continuously performed on the same day. […] Before the start of the 2nd DVT, an aqueous solution prepared by dissolving 10.0 g of isomaltulose in 100 mL of water was given as a test food. After the completion of DVT and before the next DVT, the Uchida Kraepelin test was performed. The Uchida Kraepelin test is a test of adjacent single-digit addition. In this Example, the test was performed in order to apply a load such as fatigue to the subject in order to control the break time. DVT is a task mainly used for measuring the vigilance (Non Patent Literature 1 (Joel S. Warm et al., Vigilance requires hard mental work and is stressful, Human Factors, Vol. 50 (3), pp. 433-41, 2008)). […] The time from display of the number or character to the subject's response is measured. […]

[2] = test system: healthy men and women; test: Change in cerebral blood flow in the dorsal lateral prefrontal area during DVT, measured by fNIRS (HOT-2000); format: in vivo, human; conditions: throughout 5 DVTs, compared to glucose intake group, FIGS. 2 and 3
Protocol: The subjects mentioned above were instructed to take a test diet containing glucose instead of isomaltulose on another day and the same test was performed (crossover test). They constituted a control group.
Using a brain activity measuring apparatus (HOT-2000, manufactured by NeU Corporation) based on fNIRS (near-Infrared spectroscopy), a change in cerebral blood flow in the dorsal lateral prefrontal area was measured during DVT. According to this apparatus, a change in hemoglobin concentration in blood can be detected by irradiation with near-infrared light, with the result that a change in cerebral blood flow in an active area of the brain can be measured.

[3] = test system: healthy men and women; test: Subjective questionnaire survey (VAS method) after the task; format: in vivo, human; conditions: questionnaire at 3rd to 5th block; compared to glucose control group
Protocol: As the subjects, 64 healthy men and women of 20 to 60 years old were employed. The effects of intake of isomaltulose on cerebral blood flow and brain activity were evaluated based on measurement of the response time to a cognitive task (Digit vigilance task (DVT)) and change of the cerebral blood flow in accordance with the following test. Test methods are more specifically shown below. In the test, each block including the steps shown in Table 1 was performed in one hour, and the 1st block to the 5th block were continuously performed on the same day. […] Before the start of the 2nd DVT, an aqueous solution prepared by dissolving 10.0 g of isomaltulose in 100 mL of water was given as a test food. After the completion of DVT and before the next DVT, the Uchida Kraepelin test was performed. The Uchida Kraepelin test is a test of adjacent single-digit addition. In this Example, the test was performed in order to apply a load such as fatigue to the subject in order to control the break time. First, “Last night, did you sleep better than usual?” was asked. After DVT or Uchida Kraepelin test, the survey for asking subjectivity of the subjects was conducted as to “How are you feeling right now?”, “Are you feeling tired right now?”, “Are you feeling irritated right now?”, “Are you feeling sleepy right now?”, and “Did you work diligently on the task until the end?”. […]

[4] = fraction of the hydrolysis rate of sucrose; cited from earlier work

## O=C(CO)[C@@H](O)[C@H](O)[C@H](O)CO[C@H]1O[C@H](CO)[C@@H](O)[C@H](O)[C@H]1O [isomaltulose, 6-O-α-D-glucopyranosyl-D-fructose]
[1]
  response time in DVT (change of average response time relative to 1st DVT): less likely to increase
[2]
  change in cerebral blood flow during DVT (average 0 to 120 seconds): significantly large
[3]
  answer to question "have you dealt with the task diligently to the end?": dealt with the task diligently
[4]
  hydrolysis rate relative to sucrose: ⅕
